Measurements as given in ChEMBL document CHEMBL3763059, “Lanostane-type triterpenes from the fungal endophyte Scleroderma UFSMSc1 (Persoon) Fries” (2016).
In brackets after ≈: the same amount, converted by molar mass.

Legend:
Format in all cases: functional
Pichia kudriavzevii = assay: Antifungal activity against Candida krusei ATCC 6258 after 48 hrs by micro dilution method; conditions: for MIC: Pichia kudriavzevii, ATCC 6258, 48 h
Candida parapsilosis = assay: Antifungal activity against Candida parapsilosis ATCC 22018 after 48 hrs by micro dilution method; conditions: for MIC: Lodderomyces parapsilosis, ATCC 22018, 48 h
Candida tropicalis = assay: Antifungal activity against Candida tropicalis ATCC 18803 after 48 hrs by micro dilution method; conditions: for MIC: Candida tropicalis, ATCC 18803, 48 h
Candida albicans = assay: Antifungal activity against Candida albicans ATCC 10231 after 48 hrs by microdilution method; conditions: for MIC: Candida albicans, ATCC 10231, 48 h

| Structure (SMILES) | MLC (Pichia kudriavzevii) [mg/L] | MIC (Pichia kudriavzevii) [mg/L] | MLC (Candida parapsilosis) [mg/L] | MIC (Candida parapsilosis) [mg/L] | MLC (Candida tropicalis) [mg/L] | MIC (Candida tropicalis) [mg/L] | MLC (Candida albicans) [mg/L] | MIC (Candida albicans) [mg/L] |
| --- | --- | --- | --- | --- | --- | --- | --- | --- |
| C=C(C)/C=C/C[C@@H](C)[C@H]1CC[C@@]2(C)C3=C(CC[C@]12C)[C@@]1(C)CC[C@H](O)C(C)(C)[C@@H]1CC3 | 100 (≈ 235 µM) | 12.5 (≈ 29.4 µM) | 50 (≈ 118 µM) | 25 (≈ 58.9 µM) | 100 (≈ 235 µM) | 50 (≈ 118 µM) | >100 | 50 (≈ 118 µM) |
| C[C@H](C/C=C/C(C)(C)O)[C@H]1CC[C@@]2(C)C3=C(CC[C@]12C)[C@@]1(C)CC[C@H](O)C(C)(C)[C@@H]1CC3 (relative stereo) | 100 (≈ 226 µM) | 12.5 (≈ 28.2 µM) | 100 (≈ 226 µM) | 50 (≈ 113 µM) | >100 | 50 (≈ 113 µM) | >100 | 50 (≈ 113 µM) |
| COC(C)(C)/C=C/C[C@@H](C)[C@H]1CC[C@@]2(C)C3=C(CC[C@]12C)[C@@]1(C)CC[C@H](O)C(C)(C)[C@@H]1CC3 (relative stereo) | 12.5 (≈ 27.4 µM) | 6.25 (≈ 13.7 µM) | 25 (≈ 54.7 µM) | 12.5 (≈ 27.4 µM) | 25 (≈ 54.7 µM) | 25 (≈ 54.7 µM) | 25 (≈ 54.7 µM) | 25 (≈ 54.7 µM) |
